The subject of this test is cholesterol biosynthesis. Briefly: Inhibitory activity against cholesterol biosynthesis (method of J. Biol. Chem. 234, 2835 (1959)). Type of test: biochemical. Particulars: method of Journal of Biological Chemistry, 234, 2835 (1959). The source says: The inhibitory activities of certain of the compounds of the invention, in terms of the concentration in μg/ml required to inhibit cholesterol biosynthesis by 50% [measured by the method described in the Journal of Biological Chemistry, 234, 2835 (1959)], are as follows: […]

Turning to `CC(O)[C@H](C)C(=O)O[C@H]1C[C@H](O)C=C2C=C[C@H](C)[C@H](CC[C@@H](O)C[C@@H](O)CC(=O)O)[C@H]21` (single isomer, unassigned) [Sodium 3",6'β-dihydroxy-ML-236B carboxylate, Substance A], the “concentration required to inhibit cholesterol biosynthesis by 50%” value came to 0.0018 µg/mL.
`CC[C@H](C)C(=O)O[C@H]1CCC=C2C=C[C@H](C)[C@H](CC[C@@H]3C[C@@H](O)CC(=O)O3)[C@H]21` [ML-236B lactone, reference compound]: the “concentration required to inhibit cholesterol biosynthesis by 50%” value amounted to 0.010 µg/mL.
Regarding `CC(O)[C@H](C)C(=O)O[C@H]1C[C@H](O)C=C2C=C[C@H](C)[C@H](CC[C@@H](O)C[C@@H](O)CC(=O)O)[C@H]21` (single isomer, unassigned) [Sodium 3",6'β-dihydroxy-ML-236B carboxylate, Substance B], the “concentration required to inhibit cholesterol biosynthesis by 50%” value is 0.024 µg/mL.
For `CC(O)[C@H](C)C(=O)O[C@H]1CCC=C2C=C[C@H](C)[C@H](CC[C@@H](O)C[C@@H](O)CC(=O)O)[C@H]21` (some centres unmarked) [Sodium 3"-hydroxy-ML-236B carboxylate] the value was 0.0032 µg/mL; for `CC(O)[C@H](C)C(=O)O[C@H]1CCC=C2C=C[C@H](C)[C@H](CC[C@@H]3C[C@@H](O)CC(=O)O3)[C@H]21` (some centres unmarked) [3"-hydroxy-ML-236B lactone, 3"-Hydroxy-ML-236B lactone], 0.039 µg/mL.

The record behind these values is patent publication US5153124A, “Hydroxyl-ML-236B derivatives, their preparation and use” (Sankyo Company Limited, priority 1985, dated 1992).
